SMILES strings stand for the structures.

The target of the experiment is Ba/F3-TEL-FGFR2 (Homo sapiens, UniProt P21802+P41212). The experiment is described as follows: Cell viability (proliferation inhibition) of Ba/F3 cells, CellTiter Glo. The note with it: read-out: Ba/F3 cell FGFR2 (IC50 nM), 72 h. On the technique in general: ATP-based viability assays read luminescence as a measure of living cells.
Ba/F3-TEL-FGFR2, sequence (P21802 481-770 limits assumed, one chain of several): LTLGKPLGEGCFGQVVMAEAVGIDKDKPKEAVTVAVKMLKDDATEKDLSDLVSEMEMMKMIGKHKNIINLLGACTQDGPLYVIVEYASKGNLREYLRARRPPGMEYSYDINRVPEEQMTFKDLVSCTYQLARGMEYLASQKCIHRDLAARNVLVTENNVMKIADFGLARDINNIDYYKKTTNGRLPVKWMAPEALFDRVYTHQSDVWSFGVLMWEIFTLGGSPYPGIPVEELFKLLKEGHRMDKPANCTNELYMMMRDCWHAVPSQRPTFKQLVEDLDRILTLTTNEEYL
Regarding `C=C(C)C(=O)Nc1ccc(-c2c(-c3ccc(N=S(=O)(N4CCCC4)C(F)(F)F)c(F)c3)c3c(N)ncnc3n2C)cc1` (stereo not shown) [Compound 47, N-(4-(4-amino-5-(3-fluoro-4-((oxo (pyrrolidine-1-yl) (trifluoromethyl) - λ^6-sulfanylidene)amino)phenyl) -7-methyl-7H-pyrrolo [2,3-d]pyrimidin-6-yl)phenyl) methacrylamide], the IC50 is 2.7 nM.

For the compound `C=C(C)C(=O)Nc1ccc(-c2c(-c3ccc(N=S(C)(=O)C4CCC4)cc3)c3c(N)ncnc3n2C)c(F)c1` (stereo not shown) [Compound 50, N-(4-(4-amino-5-(4-((cyclobutyl (methyl) (oxo) - λ^6-sulfanylidene)amino)phenyl) -7-methyl-7H-pyrrole [2,3-d]pyrimidin-6-yl) -3-fluorophenyl) methacrylamide], the IC50 was 7.6 nM.

For the compound `C=C(C)C(=O)Nc1ccc(-c2c(-c3ccc(N=S(=O)(N4CCC4)C(F)(F)F)cc3)c3c(N)ncnc3n2C)cc1` (stereo not shown) [Compound 51, N-(4-(4-amino-5-(4-((azetidin-1-yl(oxo)(trifluoromethyl)-λ^6-sulfanylidene)amino)phenyl) -7-methyl-7H-pyrrolo [2,3-d]pyrimidin-6-yl)phenyl) methacrylamide], the IC50 turned out to be 19.1 nM.

Take `C=C(C)C(=O)Nc1ccc(-c2c(-c3ccc(N=S(=O)(N(C)C)C(F)(F)F)cc3F)c3c(N)ncnc3n2C)cc1` (stereo not shown) [Compound 52, N-(4-(4-amino-5-(4-(((dimethylamino) (oxo) (trifluoromethyl) -λ^6-sulfanylidene)amino) -2-fluorophenyl) -7-methyl-7H-pyrrolo [2,3-d]pyrimidin-6-yl)phenyl) methacrylamide]: the IC50 was determined as 2.3 nM.

As for `C=C(C)C(=O)Nc1ccc(-c2c(-c3ccc(N=S(=O)(N(C)CC)C(F)(F)F)c(F)c3)c3c(N)ncnc3n2C)cc1` (stereo not shown) [Compound 53, N-(4-(4-amino-5-(4-(((ethyl(methyl)amino)(oxo)(trifluoromethyl)-λ^6-sulfanylidene)amino)-3-fluorophenyl)-7-methyl-7H-pyrrolo[2,3-d]pyrimidin-6-yl)phenyl) methacrylamide], the IC50 worked out at 10.2 nM.

For the compound `C=C(C)C(=O)Nc1ccc(-c2c(-c3ccc(N=S(=O)(N(C)CC)C(F)(F)F)cc3)c3c(N)ncnc3n2C)cc1` (stereo not shown) [Compound 54, N-(4-(4-amino-5-(4-(((ethyl (methyl)amino) (oxo) (trifluoromethyl) -λ^6-sulfanylidene)amino)phenyl) -7-methyl-7H-pyrrolo [2,3-d]pyrimidin-6-yl)phenyl) methacrylamide], the IC50 turned out to be 2.8 nM.

For `C=C(C)C(=O)Nc1ccc(-c2c(-c3ccc(N=S(=O)(N4CCC4)C(F)(F)F)c(F)c3)c3c(N)ncnc3n2C)cc1` (stereo not shown) [Compound 55, N-(4-(4-amino-5-(4-((azetidine 1-yl (oxo) (trifluoromethyl) -λ^6-sulfanylidene)amino)-3-fluorophenyl)-7-methyl-7H-pyrrolo[2,3-d]pyrimidin-6-yl)phenyl) methacrylamide], the IC50 worked out at 3 nM.

Regarding `C=C(C)C(=O)Nc1ccc(-c2c(-c3ccc(N=S4(=O)CC(C)(C)C4)c(F)c3)c3c(N)ncnc3n2C)cc1` [Compound 57, N-(4-(4-amino-5-(4-((3,3-dimethyl-1-oxo-1λ^6-thiocyclobutyl-1-ylidene)amino) -3-fluorophenyl) -7-methyl-7H-pyrrolo [2,3-d]pyrimidin-6-yl)phenyl) methacrylamide], the IC50 was 17.4 nM.

For the compound `CC#CC(=O)Nc1ccc(-c2c(-c3ccc(N=S4(=O)CCCC4)cc3)c3c(N)ncnc3n2C)cc1` [Compound 60, N-(4-(4-amino-7-methyl-5-(4-((1-oxotetrahydro-1 λ^6-thiophene-1-ylidene)amino)phenyl) -7H-pyrrolo [2,3-d]pyrimidin-6-yl)phenyl) but-2-ynamide], the IC50 was found to be 13.1 nM.

For `C=C(C)C(=O)Nc1ccc(-c2c(-c3ccc(N=S4(=O)CCCC4)cc3F)c3c(N)ncnc3n2C)c(F)c1` [Compound 61, N-(4-(4-amino-5-(2-fluoro-4-((1-oxotetrahydro-1λ^6-thiophene-1-ylidene)amino)phenyl)-7-methyl-7H-pyrrolo[2,3-d]pyrimidin-6-yl)-3-fluorophenyl) methacrylamide], the IC50 came out at 150 nM.

For the compound `C=C(C)C(=O)Nc1ccc(-c2c(C3=CCC(=S(=O)(CC)C(C)C)C=C3)c3c(N)ncnc3n2C)cc1` (stereo not shown) [Compound 62, N-(4-(4-amino-5-(4-(ethyl(isopropyl)(oxo)-1λ^6-sulfanylidene)phenyl) -7-methyl-7H-pyrrolo[2,3-d]pyrimidin-6-yl)-phenyl)methacrylamide], the IC50 worked out at 9.2 nM.

`C=C(C)C(=O)Nc1ccc(-c2c(-c3ccc(N=S4(=O)CCCCC4)cc3)c3c(N)ncc(C#N)c3n2C)c(F)c1` [Compound 64, N-(4-(4-amino-7-cyano-1-methyl-3-(4-((1-oxotetrahydro-2H-1λ^6-thiopyran-1-ylidene)amino)phenyl) -1H pyrrolo [3,2-c]pyridine-2-yl) -3-fluorophenyl) methacrylamide]: the IC50 is 658 nM.

As to `C=C(F)C(=O)N1CC=C(c2c(-c3ccc(N=S4(=O)CCCCC4)cc3)c3c(N)ncnc3n2C)CC1` [Compound 65, 1-(4-(4-amino-7-methyl-5-(4-((1-oxotetrahydro-2H-1 λ^6-thiopyran-1-ylidene)amino)phenyl)-7H-pyrrolo[2,3-d]pyrimidin-6-yl)-3,6-dihydropyridine-1(2H)-yl) -2-fluoropropan-2-enyl-1-one], the IC50 worked out at 121 nM.

In the case of `CC#CC(=O)N1CC=C(c2c(-c3ccc(N=S4(=O)CCCCC4)cc3)c3c(N)ncnc3n2C)CC1` [Compound 66], the IC50 was 27.8 nM.

As to `CN(C)C/C=C/C(=O)N1CC=C(c2c(-c3ccc(N=S4(=O)CCCCC4)cc3)c3c(N)ncnc3n2C)CC1` [Compound 67, (E)-1-(4-(4-amino-7-methyl-5-(4-((1-oxotetrahydro-2H-1λ^6-thiopyran-1-ylidene)amino)phenyl) -7H-pyrrolo [2,3-d]pyrimidin-6-yl) -3,6-dihydropyridine-1 (2H)-yl) -4-(dimethylamino) but-2-enyl-1-one], the IC50 turned out to be 105 nM.

In the case of `C=C(C)C(=O)Nc1ccc(-c2c(-c3ccc(N=S4(=O)CCCCC4)c(F)c3)c3c(N)ncnc3n2C)cc1` [Compound 69, N-(4-(4-amino-5-(3-fluoro-4-((1-oxotetrahydro-2H-1λ^6-thiopyran-1-ylidene)amino)phenyl) -7-methyl-7H-pyrrolo [2,3-d]pyrimidin-6-yl)phenyl) methacrylamide], the IC50 was 11.4 nM.

On to `C=C(C)C(=O)Nc1ccc(-c2c(-c3ccc(N=S(=O)(NCC)C(F)(F)F)c(F)c3)c3c(N)ncnc3n2C)cc1` (stereo not shown) [Compound 71, N-(4-(4-amino-5-(4-(((ethylamino)(oxo)(trifluoromethyl)-1 λ^6-sulfaneylidene)amino)-3-fluorophenyl)-7-methyl-7H-pyrrolo[2,3-d]pyrimidin-6-yl)phenyl) methacrylamide], for which the IC50 was 2.5 nM.

For the compound `C=C(C)C(=O)Nc1ccc(-c2c(-c3ccc(N=S4(=O)CC5(CC5)C4)cc3)c3c(N)ncnc3n2C)c(F)c1` [Compound 72], the IC50 amounted to 2.2 nM.

As for `C=C(C)C(=O)Nc1ccc(-c2c(-c3ccc(N=S(=O)(CC)CC)cc3)c3c(N)ncnc3n2C)c(C(F)F)c1` [Compound 73], the IC50 was 11.1 nM.

Regarding `C=C(C)C(=O)Nc1ccc(-c2c(-c3cc(F)c(N=S(=O)(CC)CC)cc3F)c3c(N)ncnc3n2C)c(F)c1` [Compound 76], the IC50 was found to be 6.1 nM.

With `C=C(C)C(=O)Nc1ccc(-c2c(-c3ccc(N=S4(=O)CCCC4)cc3)c3c(N)ncnc3n2CCN(C)C)c(F)c1` [Compound 78, N-(4-(4-amino-7-(2-(dimethylamino)ethyl) -5-(4-((1-hydroperoxide-1λ^6-thiophene-1-ylidene)amino)phenyl) -7H-pyrrolo [2,3-d]pyrimidin-6-yl) -3-fluorophenyl) methacrylamide], the IC50 amounted to 585 nM.

With `C=C(C)C(=O)Nc1ccc(-c2c(-c3ccc(N=S4(=O)CCCC4)cc3)c3c(N)ncnc3n2CC(C)(C)O)c(F)c1` [Compound 79, N-(4-(4-amino-7-(2-hydroxy-2-methylpropyl)-5-(4-((1-hydroperoxid-1λ^6-thiophene-1-ylidene)amino)phenyl) -7H-pyrrolo [2,3-d]pyrimidin-6-yl) -3-fluorophenyl) methacrylamide], the IC50 was found to be 61.1 nM.

For the compound `C=C(C)C(=O)Nc1ccc(-c2c(-c3ccc(N=S4(=O)CCCC4)c(OC)c3)c3c(N)ncnc3n2C)c(F)c1` [Compound 80, N-(4-(4-amino-5-(3-methoxy-4-((1-hydroperoxid-1λ^6-thiophene-1-ylidene)amino)phenyl)-7-methyl-7H-pyrrolo[2,3-d]pyrimidin-6-yl)-3-fluorophenyl) methacrylamide], the IC50 came out at 46 nM.

Consider `C=C(C)C(=O)Nc1ccc(-c2c(-c3ccc(N=S4(=O)CCCC4)c(OC)c3)c3c(N)ncnc3n2C)c(Cl)c1` [Compound 81, N-(4-(4-amino-5-(3-methoxy-4-((1-hydroperoxid-1 λ^6-thiophene-1-ylidene)amino)phenyl) -7-methyl-7H-pyrrolo [2,3-d]pyrimidin-6-yl) -3-chlorophenyl) methacrylamide], for which the IC50 worked out at 18.1 nM.

On to `C=C(C)C(=O)Nc1ccc(-c2c(-c3ccc(N=S(=O)(CC)CC)cc3F)c3c(N)ncnc3n2C)c(F)c1` [Compound 85], for which the IC50 worked out at 907 nM.

On to `C=C(C)C(=O)Nc1ccc(-c2c(-c3ccc(N=S(=O)(CC)CC)cc3)c3c(N)ncnc3n2CCOC)c(F)c1` [Compound 86], for which the IC50 is 67.4 nM.

As for `[2H]C([2H])([2H])n1c(-c2cc(C)c(NC(=O)C(=C)C)cc2F)c(-c2ccc(N=S3(=O)CCCC3)c(F)c2)c2c(N)ncnc21` [Compound 91, N-(4-(4-amino-5-(3-fluoro-4-((1-tetrahydro-1λ^6-thiophene-1-ylidene)amino)phenyl) -7-(methyl-d3) -7H-pyrrolo [2,3-d]pyrimidin-6-yl) -5-fluoro-2-methylphenyl) methacrylamide], the IC50 was 23.9 nM.

Take `C=C(CN(C)C)C(=O)Nc1ccc(-c2c(-c3ccc(N=S4(=O)CCCC4)c(F)c3)c3c(N)ncnc3n2C)cc1` [Compound 92]: the IC50 turned out to be 0.8 nM.

Values taken from patent EP4553077A1 (Kinoteck Therapeutics Co., Ltd, priority 2022, dated 2024).
